Drawing on PubChem BioAssay (NCI), this text covers TGI and GI50 for twelve compounds.

Test systems include HL-60(TB) leukemia; HOP-92 NSCLC; MOLT-4 leukemia; NCI-H460 lung; OVCAR-3 ovarian; SR leukemia; SW-620 colon; U251 CNS; UACC-257 melanoma; UO-31 renal; TK-10 renal.
Test in all cases: DTP human tumour cell line panel, 48 h

Several values for one entry are separate records, joined by “and”; a condition that tells them apart may be missing. Equal entries are not always repeated.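 Compound exposure: 48 hours, 5 concentrations, 96-well plates. At the GI50, growth is halved. TGI: concentration producing complete growth inhibition.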 Where a SMILES comes first, the peptide text is derived from it. Side-chain parts run from the residue outwards. The star is where a group is joined. Cbz = O=C(OCc1ccccc1)*; Boc = CC(C)(C)OC(=O)*

For the compound `COc1cc(C(c2cc(OC)c(OC)c(OC)c2)N2C(=O)CCC2C(=O)O)cc(OC)c1OC` (stereo unspecified), the TGI in the assay on HL-60(TB) leukemia, in the assay on HOP-92 NSCLC, in the assay on MOLT-4 leukemia, with NCI-H460 lung, in the assay with OVCAR-3 ovarian and with SR leukemia was greater than 100 µM in each case. For the same compound, the TGI with SW-620 colon, in the assay with U251 CNS, in the assay on UACC-257 melanoma and with UO-31 renal was greater than 100 µM each time.

Turning to `COc1ccc(CCNC(=S)/N=C\C2=C(O)c3ccccc3C2=O)cc1OC`, the TGI is greater than 100 µM in the assay on HL-60(TB) leukemia; 8.92 µM with HOP-92 NSCLC; greater than 100 µM in the assay with MOLT-4 leukemia; 0.746 µM with OVCAR-3 ovarian; greater than 100 µM in the assay on SR leukemia; greater than 100 µM with SW-620 colon. Also, the TGI with U251 CNS, in the assay with UACC-257 melanoma and in the assay with UO-31 renal was greater than 100 µM in each case.

Regarding `CCC(c1nc2ccccc2c(=O)n1NC(=O)C(C)(C)C)C1(O)CCCCC1` (stereo unspecified), the total growth inhibition concentration (TGI) in the assay on HL-60(TB) leukemia, in the assay on HOP-92 NSCLC, in the assay with MOLT-4 leukemia, in the assay with NCI-H460 lung, with OVCAR-3 ovarian and with SR leukemia was greater than 100 µM in each case. The concentration for total growth inhibition (TGI) with SW-620 colon, in the assay on U251 CNS, with UACC-257 melanoma and in the assay on UO-31 renal was greater than 100 µM in each case.

Consider `CCOC(=O)/C(=C\NC#N)c1nc2ccccc2[nH]1`, for which the TGI with HL-60(TB) leukemia, with HOP-92 NSCLC, with MOLT-4 leukemia, with NCI-H460 lung, in the assay on OVCAR-3 ovarian and with SR leukemia was greater than 100 µM throughout. Moreover, the concentration for total growth inhibition (TGI) with SW-620 colon was greater than 100 µM; with TK-10 renal it was greater than 100 µM; with UACC-257 melanoma, greater than 100 µM; in the assay with UO-31 renal, 6.28 µM.

Consider `CN1CCN(c2ccc3nc(-c4ccc5nc(-c6ccc(N(C)CCCl)cc6)[nH]c5c4)[nH]c3c2)CC1`, for which the TGI in the assay with HL-60(TB) leukemia is greater than 100 µM; in the assay on HOP-92 NSCLC it was 0.989 µM; in the assay with MOLT-4 leukemia, 0.357 µM; with NCI-H460 lung it was 5.14 µM; in the assay with SR leukemia it was 12.5 µM; in the assay with SW-620 colon, 1.22 µM. Besides, the total growth inhibition concentration (TGI) turned out to be 9.77 µM in the assay with TK-10 renal, 1.09 µM in the assay on U251 CNS, 3.34 µM in the assay with UACC-257 melanoma and 33.8 µM in the assay with UO-31 renal.

Take `COC(=O)C(Cc1ccccc1)NC(=O)C(CCCN=C(N)N)NC(=O)OCc1ccccc1` (stereo unspecified): the TGI in the assay with HL-60(TB) leukemia, in the assay on HOP-92 NSCLC, in the assay with MOLT-4 leukemia, in the assay with NCI-H460 lung, in the assay with OVCAR-3 ovarian and in the assay on SR leukemia was greater than 100 µM throughout. For the same compound, the TGI with SW-620 colon, in the assay with TK-10 renal, in the assay on U251 CNS and with UO-31 renal was greater than 100 µM throughout.

Turning to `COc1ccc(-c2c(C(C)=O)c(-c3ccccc3)n(C3OC(COC(C)=O)C(OC(C)=O)C(OC(C)=O)C3OC(C)=O)c(=S)c2C#N)cc1O` (stereo unspecified), the concentration for total growth inhibition (TGI) with HL-60(TB) leukemia was greater than 100 µM; in the assay with HOP-92 NSCLC, 82.5 µM and > 100 µM; in the assay with MOLT-4 leukemia, greater than 100 µM; in the assay on NCI-H460 lung it was 37.4 µM and > 100 µM; in the assay on OVCAR-3 ovarian it was 41 µM and > 100 µM; in the assay on SR leukemia, greater than 100 µM. The TGI in the assay with SW-620 colon, in the assay on U251 CNS, in the assay on UACC-257 melanoma and in the assay on UO-31 renal was greater than 100 µM in each case. In addition, the GI50 in the assay on HOP-92 NSCLC was 43.9 µM and 17.3 µM; with MOLT-4 leukemia it was 18.2 µM and 52.8 µM; in the assay with NCI-H460 lung it was 10.8 µM and 43.5 µM.

`Cc1noc(C)c1N=Nc1ccc2nonc2c1N`: the concentration for total growth inhibition (TGI) in the assay with HL-60(TB) leukemia, with HOP-92 NSCLC, with MOLT-4 leukemia, in the assay with NCI-H460 lung, with OVCAR-3 ovarian and with SR leukemia was greater than 100 µM in each case. Further, the total growth inhibition concentration (TGI) in the assay with SW-620 colon, with TK-10 renal, in the assay on UACC-257 melanoma and in the assay on UO-31 renal was greater than 100 µM in each case.

As for `CC(=O)O[C@@H]1CC2[C@@H](CCC3Cc4nc5c(nc4C[C@@]32C)CC2CC[C@@H]3C(CC[C@@]4(C)C3CC[C@@H]4C(C)CCCC(C)C)[C@@]2(C)C5)C2C[C@@H]3OC4(CCC(C)CO4)C(C)[C@@H]3[C@]21C` (stereo partly specified), the concentration for total growth inhibition (TGI) with HL-60(TB) leukemia is greater than 100 µM; with HOP-92 NSCLC, 70 µM; in the assay on MOLT-4 leukemia, greater than 100 µM; with NCI-H460 lung, greater than 100 µM; in the assay on OVCAR-3 ovarian it was greater than 100 µM; with SR leukemia it was greater than 100 µM. Besides, the TGI in the assay with SW-620 colon, in the assay on TK-10 renal, in the assay on U251 CNS and with UACC-257 melanoma was greater than 100 µM throughout.

For `CNC(=O)C(NC(=O)[C@H](CC(C)C)NC(=O)[C@@H](S)CCN1C(=O)N(C)C(C)(C)C1=O)C(C)(C)C` (stereo partly specified), the concentration for total growth inhibition (TGI) in the assay on HL-60(TB) leukemia, in the assay on HOP-92 NSCLC, in the assay with MOLT-4 leukemia, in the assay with NCI-H460 lung, in the assay on SR leukemia and in the assay on SW-620 colon was greater than 100 µM throughout. For the same compound, the TGI with TK-10 renal, in the assay on UACC-257 melanoma and with UO-31 renal was greater than 100 µM each time.

On to `CC(C)CC(NC(=O)OCc1ccccc1)C(=O)NCCCCC(NC(=O)C(CCCCNC(=O)C(CC(C)C)NC(=O)OCc1ccccc1)NC(=O)C(CCCCNC(=O)C(CC(C)C)NC(=O)OCc1ccccc1)NC(=O)C(CCCCNC(=O)C(CC(C)C)NC(=O)OCc1ccccc1)NC(=O)OC(C)(C)C)C(=O)O` (stereo unspecified) (Boc-K([Leu-Cbz])K([Leu-Cbz])K([Leu-Cbz])K([Leu-Cbz])-OH; configuration not given here), for which the TGI in the assay with HL-60(TB) leukemia, in the assay on MOLT-4 leukemia, in the assay on NCI-H460 lung, in the assay on OVCAR-3 ovarian, with SR leukemia and in the assay with SW-620 colon was greater than 25 µM each time. For the same compound, the TGI with TK-10 renal, with U251 CNS, in the assay with UACC-257 melanoma and in the assay on UO-31 renal was greater than 25 µM throughout.

As for `CC(C(O)c1ccccc1)[N+](=O)[O-]` (stereo unspecified), the TGI in the assay with HL-60(TB) leukemia was 44.6 µM; in the assay on MOLT-4 leukemia, 4.88 µM; with NCI-H460 lung, greater than 100 µM; in the assay on OVCAR-3 ovarian it was 17.3 µM; in the assay with SR leukemia, 9.82 µM; in the assay on SW-620 colon, greater than 100 µM. Also, the TGI is 72 µM in the assay on TK-10 renal, 38.4 µM in the assay with U251 CNS, 31.7 µM with UACC-257 melanoma and 20.6 µM in the assay on UO-31 renal.

Usually TGI stands for the concentration at which net growth stops. A low value points to more potent growth arrest. Broadly, the GI50 is the concentration that inhibits growth by half.
